Assays:
MLLT1 = biological target: T1, MLLT1 (Homo sapiens, UniProt Q03111); assay: MLLT1 degradation assay in MV4-11 cells (JESS chemiluminescent detection), three concentrations, 24 h; format: cell-based; settings: with respect to DMSO control
T1 construct: host or cells: MV4-11
T1 sequence (Q03111 1-559): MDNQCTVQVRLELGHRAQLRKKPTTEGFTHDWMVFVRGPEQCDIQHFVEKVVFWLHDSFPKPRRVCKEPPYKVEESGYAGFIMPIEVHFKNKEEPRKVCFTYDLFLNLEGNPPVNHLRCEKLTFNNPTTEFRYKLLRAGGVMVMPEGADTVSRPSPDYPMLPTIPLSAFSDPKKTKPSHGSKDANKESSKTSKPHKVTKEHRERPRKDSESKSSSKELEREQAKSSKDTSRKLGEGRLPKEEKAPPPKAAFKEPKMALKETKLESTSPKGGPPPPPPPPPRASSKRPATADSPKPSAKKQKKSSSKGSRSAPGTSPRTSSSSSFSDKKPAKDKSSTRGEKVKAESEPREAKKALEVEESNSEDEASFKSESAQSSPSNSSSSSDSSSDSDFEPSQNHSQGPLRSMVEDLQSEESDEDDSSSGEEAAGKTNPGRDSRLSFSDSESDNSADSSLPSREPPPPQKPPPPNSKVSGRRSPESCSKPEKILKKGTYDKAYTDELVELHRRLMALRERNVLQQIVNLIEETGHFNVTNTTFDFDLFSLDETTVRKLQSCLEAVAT
Summary of the method: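 MV4-11 cells treated 24 h at 37° C, 5% CO2 with 1000, 100 and 10 nM compound (0.1% DMSO final). MLLT1 quantified by automated capillary chemiluminescent immunodetection; band peak area expressed as % degradation relative to DMSO control.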

MV4-11 cells = assay: MV4-11 cellular proliferative assay, Assay Format B (CTG 2.0, 168 h); format: cell-based; settings: Homo sapiens, 168 h (7 days), CTG 2.0, read-out: IC50 (MV4-11 cellular proliferative assay, Assay format B)
Summary of the method: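 MV4-11 cells seeded overnight in IMDM + 10% FBS, then exposed to 10-point, 3-fold dilutions from 1 uM or 100 nM top concentration (0.3% DMSO final) for 168 h at 37 °C. CTG 2.0 luminescence read; % viability vs DMSO control fitted by four-parameter logistic regression.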

Compound	MLLT1% Degradation @ 0.01 μM (MLLT1)	MLLT1% Degradation @ 0.1 μM (MLLT1)	MLLT1% Degradation @ 1 μM (MLLT1)	IC50 (MV4-11 cells) [nM]
CN1CC2(CC2)CC1c1cc2cnc(NC(=O)c3ccc(CCCCC#Cc4cccc5c4CN(C4CCC(=O)NC4=O)C5=O)nc3)cc2[nH]1 (stereo not drawn) [Example 86, 6-(6-(2-(2,6-dioxopiperidin-3-yl)-1-oxoisoindolin-4-yl)hex-5-yn-1-yl)-N-(2-((rel-R)-5-methyl-5-azaspiro[2.4]heptan-6-yl)-1H-pyrrolo[3,2-c]pyridin-6-yl)nicotinamide]	A (Category A: A ≥ 75% degradation)	A (Category A: A ≥ 75% degradation)	B (Category B: 50% ≤ B < 75% degradation)	≤ 100
CN1CCC[C@@H]1c1cc2cnc(NC(=O)c3ccc(-c4cnn(CCOC5CCN(c6cccc(C(=O)N[C@H]7CCC(=O)NC7=O)n6)CC5)c4)cc3)cc2[nH]1 [Example 61, N—((S)-2,6-dioxopiperidin-3-yl)-6-(4-(2-(4-(4-((2-((R)-1-methylpyrrolidin-2-yl)-1H-pyrrolo[3,2-c]pyridin-6-yl)carbamoyl)phenyl)-1H-pyrazol-1-yl)ethoxy)piperidin-1-yl)picolinamide]	A (Category A: A ≥ 75% degradation)	A (Category A: A ≥ 75% degradation)	B (Category B: 50% ≤ B < 75% degradation)	≤ 100
CN1CCC[C@@H]1c1cc2cnc(NC(=O)c3cnc(N4CCC(C#Cc5cccc6c5CN(C5CCC(=O)NC5=O)C6=O)CC4)cn3)cc2[nH]1 (stereo partly drawn) [Example 186, 5-(4-((2-(2,6-dioxopiperidin-3-yl)-1-oxoisoindolin-4-yl)ethynyl)piperidin-1-yl)-N-(2-((R)-1-methylpyrrolidin-2-yl)-1H-pyrrolo[3,2-c]pyridin-6-yl)pyrazine-2-carboxamide]	B (Category B: 50% ≤ B < 75% degradation)	A (Category A: A ≥ 75% degradation)	B (Category B: 50% ≤ B < 75% degradation)	≤ 100
COc1cc(N2CCN(CC3CCN(c4cccc5c4CN(C4CCC(=O)NC4=O)C5=O)CC3)CC2)cc(F)c1C(=O)Nc1cc2[nH]c([C@H]3CCCN3C)cc2cn1 (stereo partly drawn) [Example 120, 4-(4-((1-(2-(2,6-dioxopiperidin-3-yl)-1-oxoisoindolin-4-yl)piperidin-4-yl)methyl)piperazin-1-yl)-2-fluoro-6-methoxy-N-(2-((R)-1-methylpyrrolidin-2-yl)-1H-pyrrolo[3,2-c]pyridin-6-yl)benzamide]	B (Category B: 50% ≤ B < 75% degradation)	A (Category A: A ≥ 75% degradation)	C (Category C: 25% ≤ C < 50% degradation)	≤ 100
[2H]C([2H])([2H])N1CCC[C@@H]1c1cc2cnc(NC(=O)c3ccc(CCCC#Cc4cccc5c4CN(C4CCC(=O)NC4=O)C5=O)cc3)cc2[nH]1 (stereo partly drawn) [Example 111, 4-(5-(2-(2,6-dioxopiperidin-3-yl)-1-oxoisoindolin-4-yl)pent-4-yn-1-yl)-N-(2-((R)-1-(methyl-d3)pyrrolidin-2-yl)-1H-pyrrolo[3,2-c]pyridin-6-yl)benzamide]	A (Category A: A ≥ 75% degradation)	A (Category A: A ≥ 75% degradation)	A (Category A: A ≥ 75% degradation)	≤ 100
CN1CCC[C@@H]1c1cc2cnc(NC(=O)c3ccc(OCC#Cc4cccc5c4CN(C4CCC(=O)NC4=O)C5=O)nc3)cc2[nH]1 (stereo partly drawn) [Example 2, 6-((3-(2-(2,6-dioxopiperidin-3-yl)-1-oxoisoindolin-4-yl)prop-2-yn-1-yl)oxy)-N-(2-((R)-1-methylpyrrolidin-2-yl)-1H-pyrrolo[3,2-c]pyridin-6-yl)nicotinamide]	A (Category A: A ≥ 75% degradation)	A (Category A: A ≥ 75% degradation)	A (Category A: A ≥ 75% degradation)	≤ 100
CN1CCC[C@@H]1c1cc2cnc(NC(=O)c3ccc(CCCCC#Cc4cccc5c4CN(C4CCC(=O)NC4=O)C5=O)cc3F)cc2[nH]1 (stereo partly drawn) [Example 112, 4-(6-(2-(2,6-dioxopiperidin-3-yl)-1-oxoisoindolin-4-yl)hex-5-yn-1-yl)-2-fluoro-N-(2-((R)-1-methylpyrrolidin-2-yl)-1H-pyrrolo[3,2-c]pyridin-6-yl)benzamide]	A (Category A: A ≥ 75% degradation)	A (Category A: A ≥ 75% degradation)	A (Category A: A ≥ 75% degradation)	≤ 100
CN1CCC[C@@H]1c1cc2cnc(NC(=O)c3ccc(CCCC4CCN(c5cccc6c5CN(C5CCC(=O)NC5=O)C6=O)CC4)cc3)cc2[nH]1 (mixture of isomers) [Example 76, 4-(3-(1-(2-(2,6-dioxopiperidin-3-yl)-1-oxoisoindolin-4-yl)piperidin-4-yl)propyl)-N-(2-((R)-1-methylpyrrolidin-2-yl)-1H-pyrrolo[3,2-c]pyridin-6-yl)benzamide]	A (Category A: A ≥ 75% degradation)	A (Category A: A ≥ 75% degradation)	A (Category A: A ≥ 75% degradation)	≤ 100
CN1CCC[C@@H]1c1cc2cnc(NC(=O)c3ccc(N4CCC(CC#Cc5cccc6c5CN(C5CCC(=O)NC5=O)C6=O)CC4)nn3)cc2[nH]1 (stereo partly drawn) [Example 153, 6-(4-(3-(2-(2,6-dioxopiperidin-3-yl)-1-oxoisoindolin-4-yl)prop-2-yn-1-yl)piperidin-1-yl)-N-(2-((R)-1-methylpyrrolidin-2-yl)-1H-pyrrolo[3,2-c]pyridin-6-yl)pyridazine-3-carboxamide]	A (Category A: A ≥ 75% degradation)	A (Category A: A ≥ 75% degradation)	A (Category A: A ≥ 75% degradation)	≤ 100
CN1CCC[C@@H]1c1cc2cnc(NC(=O)c3ccc(N4CCC(OC5CCN(c6cccc7c6CN(C6CCC(=O)NC6=O)C7=O)CC5)CC4)nc3)cc2[nH]1 (stereo partly drawn) [Example 145, 6-(4-((1-(2-(2,6-dioxopiperidin-3-yl)-1-oxoisoindolin-4-yl)piperidin-4-yl)oxy)piperidin-1-yl)-N-(2-((R)-1-methylpyrrolidin-2-yl)-1H-pyrrolo[3,2-c]pyridin-6-yl)nicotinamide]	A (Category A: A ≥ 75% degradation)	A (Category A: A ≥ 75% degradation)	A (Category A: A ≥ 75% degradation)	≤ 100

Other lines, results leading:

MLLT1% Degradation @ 0.01 μM (MLLT1)	MLLT1% Degradation @ 0.1 μM (MLLT1)	MLLT1% Degradation @ 1 μM (MLLT1)	IC50 (MV4-11 cells) [nM]	Compound
A (Category A: A ≥ 75% degradation)	A (Category A: A ≥ 75% degradation)	A (Category A: A ≥ 75% degradation)	≤ 100	CN1CCC[C@@H]1c1cc2cnc(NC(=O)c3ccc(OCCN4CCC(c5cccc6c5CN(C5CCC(=O)NC5=O)C6=O)CC4)cc3)cc2[nH]1 (stereo partly drawn) [Example 141, 4-(2-(4-(2-(2,6-dioxopiperidin-3-yl)-1-oxoisoindolin-4-yl)piperidin-1-yl)ethoxy)-N-(2-((R)-1-methylpyrrolidin-2-yl)-1H-pyrrolo[3,2-c]pyridin-6-yl)benzamide]
A (Category A: A ≥ 75% degradation)	A (Category A: A ≥ 75% degradation)	A (Category A: A ≥ 75% degradation)	≤ 100	CN1CCC[C@@H]1c1cc2cnc(NC(=O)c3ccc(CCCC#Cc4ccc(F)c5c4CN(C4CCC(=O)NC4=O)C5=O)cc3)cc2[nH]1 (stereo partly drawn) [Example 91, 4-(5-(2-(2,6-dioxopiperidin-3-yl)-7-fluoro-1-oxoisoindolin-4-yl)pent-4-yn-1-yl)-N-(2-((R)-1-methylpyrrolidin-2-yl)-1H-pyrrolo[3,2-c]pyridin-6-yl)benzamide]

— patent publication US20260191968A1, “PROTAC DEGRADERS OF MLLT1 AND/OR MLLT3” (DARK BLUE THERAPEUTICS LTD, priority 2024, published 2026)
